# Reference: PMC2217226 (The Journal of General Physiology, 2000)
# “Also recorded” adds a separate entry of the source. Read-outs that look alike come from different tables or passages of the source.
# Tests used:
# SACs = conditions: cited from earlier work
# [1] = test system: endogenous SACs in oocytes; conditions: ref Lane et al., 1991; cited from earlier work
# epithelial Na^+ channels = conditions: no separate reference printed; cited from earlier work
# [2] = test system: SACs in audiovestibular hair cells; conditions: ref Jorgensen and Ohmori 1988; cited from earlier work
# [3] = test system: swelling-activated anion current in astrocytoma cells; conditions: ref Bakhramov et al. 1995; cited from earlier work
# [4] = test system: swelling-activated whole-cell current in adult astrocytes; assay type: cell-based, rat
# [5] = test system: SACs (cation-selective stretch-activated channels) in outside-out patches from adult rat astrocytes; assay: SAC activity in outside-out patches, pressure-activated, patch clamp; assay type: cell-based
# [6] = test system: glutamate-stimulated K^+ influx in neonatal astrocytes; conditions: ref Bender et al. 1998; cited from earlier work
# NMDA channel = conditions: ref Bender et al. 1998; cited from earlier work
# [7] = test system: rabbit hearts, atrial fibrillation associated with dilatation; conditions: ref Bode et al. 1999; cited from earlier work
# [8] = test system: voltage-sensitive whole-cell currents of astrocytes; assay: Voltage-sensitive whole-cell currents, perforated patch; assay type: cell-based, rat; conditions: concentration not printed at place
# [9] = test system: whole-cell current of rabbit CHF ventricular myocytes in 1.5T hypertonic saline; assay type: cell-based; conditions: 0.4 μM GsMTx-4, 1.5T hypertonic saline, averages from five cells
# [10] = Overall charge of the toxin; assay type: physicochemical; conditions: from the sequence
# [11] = test system: ventricular myocytes from rabbits with aortic regurgitation-induced CHF; assay: Myocyte cell volume during perforated patch voltage clamp; assay type: cell-based, rabbit
# [12] = test system: normal electrical activity of the heart, rabbit; conditions: Langendorff-perfused rabbit hearts, preliminary; ref Bode et al. 1999; cited from earlier work
# [13] = test system: ICl,swell (outwardly rectifying Cl^− current), rabbit CHF ventricular myocytes; assay: Swelling-activated anion current in CHF ventricular myocytes, perforated patch; assay type: cell-based
# K^+ channel = conditions: Fig. 8 legend; ref Swartz and MacKinnon 1995; cited from earlier work
# E-type Ca^2+ channels = conditions: Fig. 8 legend; ref Newcomb et al. 1998; cited from earlier work
# [14] = introduction, ref Hamill and McBride 1996, Sachs and Morris 1998
compound,measurement,setting,value
N=C(N)NC(=O)c1nc(Cl)c(N)nc1N [Amiloride],blocking activity against SACs,SACs; [14],low affinity blocking activity
same,block of endogenous SACs in oocytes,[1],blocks
same,affinity for epithelial Na^+ channels,epithelial Na^+ channels,nanomolar affinity
same,block of SACs in audiovestibular hair cells,[2],blocks
"O=S(=O)(O)c1cc(N=C=S)ccc1C=Cc1ccc(N=C=S)cc1S(=O)(=O)O [DIDS, 4,4′-diisothiocyanatostilbene-2,2′-disulphonic acid, reference compound]",reduction of swelling-activated anion current,[3],significant reduction
same,effect on swelling-activated current (in words),"[4]; 50 μM DIDS, 30 s hypotonic saline, especially at depolarized potentials, n = 6",significant reduction in current
COc1ccc([C@@H]2Sc3ccccc3N(CCN(C)C)C(=O)[C@@H]2OC(C)=O)cc1 [Diltiazem],blocking activity against SACs,SACs; [14],low affinity blocking activity
"N[C@@H](CCC(=O)O)C(=O)O [Glutamate, reference compound]",Activity on astrocyte SACs,"[5]; 10 μM, n = 2 trials, outside-out patches at −50 mV",No activation
same,activation of SACs in unstretched patches,"[5]; 10 μM, unstretched patches that contained SACs",did not activate SACs
C[C@]12N[C@H](Cc3ccccc31)c1ccccc12 [MK801],effect on glutamate-stimulated K^+ influx,[6],inhibits glutamate-stimulated K^+ influx
same,affinity as NMDA open-channel blocker,NMDA channel,nanomolar affinity
"COC(=O)C1=C(C)NC(C)=C(C(=O)OC)C1c1ccccc1[N+](=O)[O-] [Nifedipine, reference compound]",Activity on astrocyte SACs,[5],No block
CC[N+](CC)(CC)CC [tetraethylammonium],blocking activity against SACs,SACs,low affinity blocking activity
GsMTx-4,suppression of cardiac arrhythmias,[7],ability to suppress cardiac arrhythmias
same,activity against voltage-sensitive whole-cell currents,[8],no effect on whole-cell voltage-sensitive currents; also recorded: did not effect voltage-sensitive currents; also recorded: negligible activity
same,effect on whole-cell current,[9],unaffected; also recorded: did not affect membrane currents
same,I/I0 (ratio of blocked to unblocked current),"[5]; from data of Fig. 6, outside-out patches, −50 mV",0.083
same,dissociation rate constant k d,"[5]; from washout time constant, n = 7 patches",0.21 s⁻¹
same,state dependence of block,"[5]; mechanism of action, closed channels",can act on closed channels
same,block of SACs,"[5]; outside-out patches, 1:1,000 dilution, 8 μg/ml, rapid upon superfusion",the block was complete
same,overall charge,[10],+5
same,cell volume reduction,"[11]; 0.4 μM GsMTx-4, 1.0T solution, averages from five cells",7%
same,cell volume after osmotic shrinkage,"[11]; 0.4 μM GsMTx-4, 1.5T solution, averages from five cells",unaffected
same,cell volume reduction relative to that produced by 1.5T saline,"[11]; 0.4 μM GsMTx-4, isotonic",~40%
same,effect on normal electrical activity of the heart,[12],doesn't block normal electrical activity of the heart
same,"effect on ICl,swell","[13]; 0.4 μM GsMTx-4, isotonic (1.0T), averages from five cells",no effect
same,effect on anion current,"[13]; rabbit dilated cardiomyopathy model, concentration not printed at place",did not affect the anion current
same,effect on peak swelling-activated current (in words),"[4]; 5 μM GsMTx-4, 30 s after hypotonic exposure",significantly reduced the peak current response
same,reduction in peak swelling-activated current,"[4]; 5 μM GsMTx-4, 30 s, after subtracting resting current, representative cell (Fig. 9 C)",~75%
same,change in reversal potential of swelling-activated current,"[4]; 5 μM GsMTx-4, statistically indistinguishable from 0 mV",+2 mV
same,reduction in swelling-activated anion current,"[4]; adult astrocytes, discussion",40–50%
same,reduction in swelling-activated whole-cell current,"[4]; hypotonically swollen astrocytes, potential not printed at place",~40%
same,recovery of swelling currents after washout,[4]; ∼4 min after washout of 5 μM GsMTx-4,partially recovered
Hanatoxin,K^+ channel block,K^+ channel,K^+ channel blocker
"SNX-482: peptide toxin that blocks E-type Ca^2+ channels (GVDKAGCRYMFGGCSVNDDCCPRLGCHSLFSYCAWDLTFSD; UniProt P56854 1-41, looked up)",E-type Ca^2+ channel block,E-type Ca^2+ channels,blocks E-type Ca^2+ channels
